Measurements reported in ChEMBL document CHEMBL3301448, “MMV Malaria Box screening against Toxoplasma gondii and Entamoeba histolytica”.

How the values were obtained:
[1] = test system: Toxoplasma gondii; test: MMV: A total of 100ul of inoculum was added to each well (parasite/cell ratio, ~10:1; final volume, 200 ul). Six hours after inoculation, nonadherent parasites were removed, and 100 ul of complete DMEM (1% penicillin-streptomycin, 3% FBS) supplemented with inhibitors at different concentrations (2-fold serial dilutions starting from 30 uM) was added to all except the negative-control wells. Positive controls, consisting of pyrimethamine (PYR) and sulfadiazine (SDZ) (20-mg/ml stocks in DMSO), were tested at a 2mg/ml final concentration. Each test was performed in triplicate.; assay type: functional, organism-based; details: 6 h
[2] = test system: Entamoeba histolytica; test: MMV: Primary screening was performed with each compound at a 30 uM final concentration and in triplicate in sealed 96-well polystyrene microtiter plates. Parasite inocula (100 ul) comprising 20000 parasites/ml were added to each well and grown at 37 degrees C in a humidified atmosphere of 5% CO2 for 72 h. Positive controls consisted of metronidazole at 1 mg/ml. The growth of E. histolytica trophozoites in each well was determined microscopically by measuring the diameters of the confluent cells in drug-containing wells relative to those in the nega- tive-control wells.; assay type: functional, organism-based

Compound | IC50 [1] | IC50 [2]
Cc1sc(NC(=O)c2ccccc2)c(C(c2cccs2)N2CCN(c3ccccc3)CC2)c1C (configuration not stated) | > 30 µM | > 30 µM
CCOC(=O)c1cnc2c(C)cccc2c1Nc1ccc(C(C)=O)cc1 | > 30 µM | > 30 µM
COc1ccc(Nc2nc(NCc3ccccc3)c3ccccc3n2)cc1 | > 30 µM | > 30 µM
COc1ccc(CCn2c(=N)c(C(=O)NCc3cccnc3)cc3c(=O)n4cccc(C)c4nc32)cc1 | > 30 µM | > 30 µM
Cc1ccc(Nc2nc(-c3ccccn3)cs2)cc1 | > 30 µM | > 30 µM
Oc1ccccc1CN1CCC2(CCCN(Cc3ccccc3F)C2)C1 (configuration not stated) | > 30 µM | > 30 µM
COc1cc2c3cc1Oc1c(OC)c(OC)cc4c1C(Cc1ccc(O)c(c1)Oc1ccc(cc1)CC3N(C)CC2)N(C)CC4 (configuration not stated) | > 30 µM | > 30 µM
CCCCc1c(CCC)c(=N)c2ccccc2n1C | > 30 µM | > 30 µM
Cc1cc(NC(=O)c2cccc(C(F)(F)F)c2)n(-c2nc(-c3ccc4c(c3)OCO4)cs2)n1 | > 30 µM | > 30 µM
CCCN(CCC)CCCNC(=O)c1cc2c(-c3ccc(OC)c(OC)c3)nn(C)c2s1 | > 30 µM | > 30 µM
COc1ccc(C2C(C(=O)Nc3cccc(OC)c3)c3ccccc3C(=O)N2C2CCCCC2)cc1 (configuration not stated) | > 30 µM | > 30 µM
O=C(Nc1nc(-c2ccccn2)cs1)c1ccccc1Br | > 30 µM | > 30 µM
CCOc1c(Cl)cc(CNC(C)C(O)c2ccccc2)cc1OC (configuration not stated) | > 30 µM | > 30 µM
Clc1cc(Br)ccc1-c1ccc(CNCC2CCNCC2)o1 | > 30 µM | > 30 µM
CCOc1cc(Cl)c(C(C)NC(=O)c2ccccc2)cc1OCC (configuration not stated) | > 30 µM | > 30 µM
O=C(Nc1ccsc1C(=O)NC1CCCCC1)c1ccc(F)cc1 | > 30 µM | > 30 µM

Compound | IC50 [1] | IC50 [2]
COc1cc2cc(C(=O)Nc3ccccc3)c(N)nc2cc1OC | > 30 µM | > 30 µM
CN(C)c1ccc(C=Cc2nc(=O)c3ccccc3o2)cc1 | > 30 µM | > 30 µM
COc1ccc(Nc2cc(C)nc(NCc3ccccc3)n2)cc1 | > 30 µM | > 30 µM
CCCc1c(C)nc2ccccc2c1O | > 30 µM | > 30 µM
CN1CCN(c2nc(Nc3ccc(O)cc3)nc3ccccc23)CC1 | > 30 µM | > 30 µM
O=C(Nc1cccc(C2=NCCN2)c1)Nc1cccc(C2=NCCN2)c1 [IMIDOCARB] | > 30 µM | > 30 µM
Oc1c2c(nc3cc(-c4ccccc4)nn13)CCCC2 | 26.2 µM | > 30 µM
Cc1cc(Nc2cccc(F)c2)nc(NCc2ccccc2)n1 | > 30 µM | > 30 µM
CCOC(=O)C1=C(C)N=c2sc(=Cc3cc(Cl)ccc3O)c(=O)n2C1c1ccc(OC)cc1 (configuration not stated) | 24.9 µM | > 30 µM
COc1ccc(C=C2SC(=N)N(c3ccccc3OC)C2=O)cc1 | > 30 µM | > 30 µM
Cc1ccccc1OCCSc1nc2ccc(NC(=O)c3ccccc3)cc2s1 | > 30 µM | > 30 µM
Cc1ccc(CN2CCC(C(=O)Nc3ccc(-c4cc5ccccc5[nH]4)cc3)CC2)o1 | > 30 µM | > 30 µM
O=C1c2ccccc2C2=Nc3ccccc3SC(c3cccc(F)c3)C12 (configuration not stated) | 18.7 µM | > 30 µM
Cc1ccc(N2C3c4ccccc4N(S(=O)(=O)c4ccc(C)cc4)C2c2ccccc2N3S(=O)(=O)c2ccc(C)cc2)cc1 | > 30 µM | > 30 µM
Cc1cc(N2CCN(C3CCCC3)CC2)n2c(nc3ccccc32)c1C#N | > 30 µM | > 30 µM
